Values after ≈ are worked out from the molar mass of the structure shown.
Assays:
E. coli and S. aureus = assay: Salt tolerance (MICs under 0-150 mM NaCl, summary); assay type: cell-based, Escherichia coli; Staphylococcus aureus; parameters: key: Up to 50 mM: no effects on antibacterial activity up to 50 mM NaCl but increase in the MICs for E. coli and S. aureus at 100 mM NaCl; Intolerant: not resistant to salt effects even at 50 mM NaCl; Up to 150 mM: no effects on antibacterial activity up to 150 mM NaCl; details: MICs for E. coli and S. aureus in MHB with 0, 50, 100 or 150 mM NaCl
Procedure: (§1) The activity of peptides was determined against the Gram-positive Staphylococcus aureus (ATCC 25923), and the Gram-negative Escherichia coli (ATCC 25922) and Pseudomonas aeruginosa (ATCC 9027) bacteria. Selected peptides were also tested against two clinical isolates of methicillin-resistant Staphylococcus aureus (MRSA), M173525 and M180920, kindly provided by Dr P. B. Ward (Microbiology Department, Austin and Repatriation Medical Centre, Heidelberg West, Victoria, Australia). The Minimum inhibitory concentration (MIC) of peptides was determined by the microtitre broth dilution method, as described in Phillips et al.. Briefly, bacteria were grown in Mueller-Hinton Broth (MHB) at 37 °C overnight with shaking (200 rpm). The cultures were adjusted to 0.5 McFarland turbidity standard (approximately 1 × 10^8 colony forming units (CFU)/mL), then diluted 1:100 in MHB (1 × 10^6 CFU/mL). A total of 75 μL of these suspensions were mixed with 25 μL of peptide solutions (final concentrations 250 to 0.5 μg/mL) and the microtitre plates incubated overnight at 37 °C. Positive growth controls (inoculum and MHB, with no peptide) and sterility controls (0.01% glacial acetic) were also included. Post-incubations, the absorbance of cultures at 595 nm was measured using a microplate reader (POLARstar Omega, Germany). […] To evaluate salt sensitivity of peptides up to physiological levels (150 mM NaCl), overnight cultures of S. aureus and E. coli adjusted to 0.5 McFarland turbidity standard were diluted 1:100 in MHB containing 0, 50, 100 or 150 mM NaCl, and the MICs of peptides determined as above. All tests were conducted in triplicate. The results are shown as the mode of values obtained.

[1] = system: porcine trypsin and proteinase K; assay: Proteases stability assay; assay type: in vitro ADME, porcine; Tritirachium album; details: 1000 µg peptide with 50 µg protease (20:1 w/w), porcine trypsin or proteinase K, PBS pH 7.4, 37 °C, 3 h; read-out activity of supernatant on E. coli and S. aureus; triplicate
Procedure: The effect of two well-studied proteases, porcine trypsin and proteinase K from Tritirachium album, on the activity of peptides was investigated as per Carmona et al.. Briefly, 1000 µg of a peptide was incubated with 50 µg of a protease (20:1 w/w) at 37 °C for 3 h in phosphate buffered saline PBS (pH 7.4). The enzyme activity was then terminated by heating (70 °C, 5 min) and the samples centrifuged at 12,000× g. The activity of the supernatant on E. coli and S. aureus was tested as above, in triplicate.

E. coli ATCC25922 = assay type: cell-based, Escherichia coli; details: MHB; for MIC E. coli, No NaCl: 0 mM NaCl; for MIC E. coli, No NaCl / MIC E. coli, With 50mM NaCl / MIC E. coli, With 100mM NaCl / MIC E. coli, With 150mM NaCl: triplicate, mode
Procedure: as §1

S. aureus ATCC25923 = assay type: cell-based, Staphylococcus aureus; details: MHB; for MIC S. aureus, No NaCl: 0 mM NaCl; for MIC S. aureus, No NaCl / MIC S. aureus, With 50mM NaCl / MIC S. aureus, With 100mM NaCl / MIC S. aureus, With 150mM NaCl: triplicate, mode
Procedure: as §1

P. aeruginosa ATCC9027 = assay type: cell-based, Pseudomonas aeruginosa; details: MHB, 37 °C overnight, A595; mode of three independent experiments
Procedure: as §1

C. albicans FRR 5580 = assay type: cell-based, Candida albicans; details: PDB, overnight; mode of three independent experiments
Procedure: The assay was carried out as per Alfred et al.. Candida albicans (FRR 5580) was grown in potato dextrose broth (PDB; Difco-BD, Bergen County, NJ, USA) overnight at 30 °C with shaking (200 rpm) until exponential phase, then adjusted to 0.5 McFarland turbidity standard (approximately 1 × 10^6 cells/mL) and diluted 1:200 with PDB to 0.5 − 2 × 10^3 cells/mL. Peptides in 25 μL volumes were mixed with 75 μL of the yeast suspensions. The controls were included as above. The plates were incubated overnight and absorbance was recorded. All the tests were conducted in triplicate.

NIH-3T3 cells = assay: Cytotoxicity, MTT assay; assay type: cell-based, mouse; details: 24 h; for IC50 NIH-3T3: peptide up to 250 µg/mL, concentration causing 50% cell growth inhibition, mean of triplicate assays
Procedure: (§2) Cytotoxicity to human cervical carcinoma HeLa cells and mouse fibroblastic NIH-3T3 cells was determined using the MTT assay as per Scudiero et al. with minor modifications. The cells were maintained in Dulbecco’s Modified Eagle Medium (DMEM) with 10% foetal bovine serum (FBS) and 1% penicillin G in a humidified incubator (Heraeus Hera Cell incubator) at 37 °C with 5% CO2. They were seeded in 96-well microtiter plates at 1 × 10^4 cells/well and allowed to adhere for 24 h in the incubator. The medium was removed, and adherent cells were washed with PBS. Fresh media containing serially diluted peptides in PBS (final concentrations 4 to 250 µg/mL) were added and the cells incubated for 24 h. Cells without peptides were used as negative controls. Following incubations, the medium was removed, and adherent cells were washed with PBS. 150 µL of MTT (diluted to 0.33 mg/mL in DMEM) and the plates incubated for 3 h. The precipitated formazan was dissolved in 100 µL of DMSO and its absorbance measured at 570 nm. Cell viability was determined as: (OD570 nm peptide treated cells/(OD570 nm untreated cells) × 100. Positive cytotoxicity was defined as peptide concentration that causes 50% growth inhibition in a cell line (IC50). All tests were carried out in triplicate.

HeLa cells = assay type: cell-based, human; details: MTT, 24 h, peptide up to 250 µg/mL; concentration causing 50% cell growth inhibition; mean of triplicate assays
Procedure: as §2

[2] = 37 °C overnight, A595, mode of three independent experiments

Compound | Salt Tolerance (E. coli and S. aureus) | Protease Stability [1] | MIC E. coli, No NaCl (E. coli ATCC25922) [µg/mL] | MIC E. coli, With 50mM NaCl (E. coli ATCC25922) [µg/mL] | MIC E. coli, With 100mM NaCl (E. coli ATCC25922) [µg/mL] | MIC E. coli, With 150mM NaCl (E. coli ATCC25922) [µg/mL] | MIC E. coli ATCC25922 (E. coli ATCC25922; [2]) [µg/mL] | MIC S. aureus, No NaCl (S. aureus ATCC25923) [µg/mL] | MIC S. aureus, With 50mM NaCl (S. aureus ATCC25923) [µg/mL] | MIC S. aureus, With 100mM NaCl (S. aureus ATCC25923) [µg/mL] | MIC S. aureus, With 150mM NaCl (S. aureus ATCC25923) [µg/mL] | MIC S. aureus ATCC25923 (S. aureus ATCC25923; [2]) [µg/mL] | MIC P. aeruginosa ATCC9027 (P. aeruginosa ATCC9027) [µg/mL] | MIC C. albicans FRR 5580 (C. albicans FRR 5580) [µg/mL] | IC50 NIH-3T3 (NIH-3T3 cells) [µg/mL] | Cytotoxicity to NIH-3T3 mouse fibroblasts (in words) (NIH-3T3 cells; up to 250 µg/mL) | IC50 HeLa (HeLa cells) [µg/mL]
CC(C)[C@H](NC(=O)[C@@H]1CCCN1C(=O)[C@@H](N)Cc1ccccc1)C(=O)N[C@H](C(=O)N[C@@H](Cc1c[nH]c2ccccc12)C(=O)N[C@@H](CCCNC(=N)N)C(=O)N[C@@H](Cc1c[nH]c2ccccc12)C(=O)N[C@@H](Cc1c[nH]c2ccccc12)C(=O)N[C@@H](CCCCN)C(=O)N[C@@H](Cc1c[nH]c2ccccc12)C(=O)N[C@@H](Cc1c[nH]c2ccccc12)C(=O)N[C@@H](CCCCN)C(=O)NCC(=O)NCCCC[C@@H](NC(=O)CNC(=O)[C@H](CCCCN)NC(=O)[C@H](Cc1c[nH]c2ccccc12)NC(=O)[C@H](Cc1c[nH]c2ccccc12)NC(=O)[C@H](CCCCN)NC(=O)[C@H](Cc1c[nH]c2ccccc12)NC(=O)[C@H](Cc1c[nH]c2ccccc12)NC(=O)[C@H](CCCNC(=N)N)NC(=O)[C@H](Cc1c[nH]c2ccccc12)NC(=O)[C@@H](NC(=O)[C@@H](NC(=O)[C@@H]1CCCN1C(=O)[C@@H](N)Cc1ccccc1)C(C)C)[C@@H](C)O)C(N)=O)[C@@H](C)O [Di-PuroA] | Intolerant | Unstable | – | – | – | – | – | – | – | – | – | – | – | – | – | – | –
CC(C)[C@H](NC(=O)[C@@H]1CCCN1C(=O)[C@@H](N)Cc1ccccc1)C(=O)N[C@H](C(=O)N[C@@H](Cc1c[nH]c2ccccc12)C(=O)N[C@@H](CCCNC(=N)N)C(=O)N[C@@H](Cc1c[nH]c2ccccc12)C(=O)N[C@@H](Cc1c[nH]c2ccccc12)C(=O)N[C@@H](CCCCN)C(=O)N[C@@H](Cc1c[nH]c2ccccc12)C(=O)N[C@@H](Cc1c[nH]c2ccccc12)C(=O)N[C@@H](CCCCN)C(=O)NCC(=O)O)[C@@H](C)O [PuroA-OH] | Intolerant | Unstable | 32 (≈ 17.2 µM) | 64 (≈ 34.3 µM) | > 250 | > 250 | 32 (≈ 17.2 µM) | 64 (≈ 34.3 µM) | 125 (≈ 67.1 µM) | > 250 | > 250 | 64 (≈ 34.3 µM) | 125 (≈ 67.1 µM) | 250 (≈ 134 µM) | >250 | no cytotoxicity | >250
RKRWWRWWKWWKR-NH2 [dP1, diastereomeric counterpart of P1] | Up to 150 mM | – | 16 | 16 | 16 | 16 | – | 16 | 16 | 16 | 16 | – | 16 | 64 | 250 | – | 125

Source: publication PMC7696940, “Effects of Rationally Designed Physico-Chemical Variants of the Peptide PuroA on Biocidal Activity towards Bacterial and Mammalian Cells” (International Journal of Molecular Sciences, 2020)
